Each structure is given as a SMILES string. Active and inactive are the calls of the source.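 The calls were made as follows: active = IC50 below 10 µM for blocking the PP1 phosphatase acting on a fluorogenic substrate; inactive = IC50 of 10 µM or more.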

Serine/threonine-protein phosphatase PP1-alpha catalytic subunit (Homo sapiens), sequence (P62136 whole entry, looked up): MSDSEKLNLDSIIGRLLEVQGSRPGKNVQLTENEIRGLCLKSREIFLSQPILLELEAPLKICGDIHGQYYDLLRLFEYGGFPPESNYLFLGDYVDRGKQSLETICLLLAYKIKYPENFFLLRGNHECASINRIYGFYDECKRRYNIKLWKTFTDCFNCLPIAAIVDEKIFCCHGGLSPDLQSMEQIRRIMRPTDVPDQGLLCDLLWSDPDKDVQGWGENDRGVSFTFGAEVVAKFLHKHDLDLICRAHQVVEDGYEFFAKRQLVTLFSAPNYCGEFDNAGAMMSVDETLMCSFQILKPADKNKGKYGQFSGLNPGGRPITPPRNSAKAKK

This assay has as its target Serine/threonine-protein phosphatase PP1-alpha catalytic subunit (Homo sapiens) (UniProt P62136). The experiment in a line: PP1 inhibitor potency with OMFP substrate, dose response, biochemical, fluorescence, set 2 (AID 652207). Particulars: purified PP1alpha, OMFP dephosphorylation fluorescence.
As for `CN1CCN(C(c2nccs2)c2cc(Cl)c3cccnc3c2O)CC1` (stereo unspecified), the IC50 was 1.62 µM.

As for `CN1CCN(Cc2cc(Cl)c3cccnc3c2O)CC1`, the IC50 result is “inactive”. The same measure for `Oc1c(Cc2ccccn2)ccc2cccnc12`: 2.64 µM; for `CN1CCN(C(c2ccccn2)c2ccc3cccnc3c2O)CC1` (stereo unspecified): 1.15 µM.

For the molecule `CN1CCN(C(c2cccs2)c2cc(Cl)c3cccnc3c2O)CC1` (stereo unspecified), the IC50 is 8.42 µM. The same measure for `Oc1c(C(c2ccccn2)N2CCOCC2)cc(Cl)c2cccnc12` (stereo unspecified): 1.32 µM.

Source of the values: PubChem BioAssay AID652207 (The Scripps Research Institute Molecular Screening Center, 2013).
